Values of other authors as cited in patent US20230000905A1, “IODINE AND POLYOL COMPOSITION, METHOD, AND USE” (priority 2020, published 2023).

System: rhinovirus
Settings: molecular iodine at the tested concentrations

II [molecular iodine]
time to inactivate rhinovirus: 30 s
